Test results reported in the NIST ThermoML archive (doi:10.1021/acs.jced.8b01135).

Assay: xn = mol fraction of the nth substance listed
Conditions: 102 kPa, Liquid; for speed of sound: Frequency=3 MHz, Single path-length method; for mass density: Vibrating tube method; for viscosity: Concentric cylinders viscometry

CCCCCCCCC1CCCCC1 [octylcyclohexane] + CCCCCCCCCCCC
Conditions	mass density [kg/m3]	speed of sound [m/s]	viscosity [mPa·s]
288.15 K, x1 = 0.1	759.33	1326.2	–
288.15 K, x1 = 0.1998	766.24	1335.1	–
288.15 K, x1 = 0.3002	772.95	1344.1	–
288.15 K, x1 = 0.3998	779.63	1353.1	–
288.15 K, x1 = 0.4948	785.9	1361.6	–
288.15 K, x1 = 0.5997	792.69	1370.8	–
288.15 K, x1 = 0.6996	798.98	1379.4	–
288.15 K, x1 = 0.7999	805.34	1388.2	–
288.15 K, x1 = 0.9	811.48	1396.9	–
288.15 K, x1 = 1	817.58	1405.5	–
293.15 K, x1 = 0.1	755.72	1306.9	1.61
293.15 K, x1 = 0.1998	762.65	1315.8	1.74
293.15 K, x1 = 0.3002	769.38	1324.8	1.91
293.15 K, x1 = 0.3998	776.08	1333.9	2.05
293.15 K, x1 = 0.4948	782.36	1342.3	2.23
293.15 K, x1 = 0.5997	789.17	1351.6	2.44
293.15 K, x1 = 0.6996	795.48	1360.3	2.66
293.15 K, x1 = 0.7999	801.86	1369.1	2.91
293.15 K, x1 = 0.9	808.01	1377.8	3.2
293.15 K, x1 = 1	814.13	1386.4	3.52
298.15 K, x1 = 0.1	752.11	1287.6	–
298.15 K, x1 = 0.1998	759.06	1296.5	–
298.15 K, x1 = 0.3002	765.81	1305.5	–
298.15 K, x1 = 0.3998	772.53	1314.8	–
298.15 K, x1 = 0.4948	778.83	1323.4	–
298.15 K, x1 = 0.5997	785.65	1332.6	–
298.15 K, x1 = 0.6996	791.98	1341.2	–
298.15 K, x1 = 0.7999	798.37	1350.2	–
298.15 K, x1 = 0.9	804.53	1358.7	–
298.15 K, x1 = 1	810.67	1367.4	–
303.15 K, x1 = 0.1	748.5	1268.4	1.36
303.15 K, x1 = 0.1998	755.45	1277.3	1.47
303.15 K, x1 = 0.3002	762.24	1286.4	1.6
303.15 K, x1 = 0.3998	768.97	1295.9	1.69
303.15 K, x1 = 0.4948	775.29	1304.4	1.82
303.15 K, x1 = 0.5997	782.13	1313.8	1.98
303.15 K, x1 = 0.6996	788.47	1322.2	2.15
303.15 K, x1 = 0.7999	794.88	1331.4	2.34
303.15 K, x1 = 0.9	801.06	1339.9	2.55
303.15 K, x1 = 1	807.2	1348.6	2.79
313.15 K, x1 = 0.1	741.26	1230.7	1.16
313.15 K, x1 = 0.1998	748.26	1239.6	1.24
313.15 K, x1 = 0.3002	755.08	1248.9	1.33
313.15 K, x1 = 0.3998	761.84	1258.6	1.43
313.15 K, x1 = 0.4948	768.19	1267.1	1.52
313.15 K, x1 = 0.5997	775.07	1276.7	1.64
313.15 K, x1 = 0.6996	781.45	1285.1	1.77
313.15 K, x1 = 0.7999	787.89	1294.4	1.92
313.15 K, x1 = 0.9	794.1	1302.8	2.08
313.15 K, x1 = 1	800.28	1311.6	2.26
323.15 K, x1 = 0.1	734	1193.7	1
323.15 K, x1 = 0.1998	741.03	1202.7	1.07
323.15 K, x1 = 0.3002	747.89	1212.2	1.14
323.15 K, x1 = 0.3998	754.69	1221.9	1.23
323.15 K, x1 = 0.4948	761.08	1230.5	1.31
323.15 K, x1 = 0.5997	768	1240.1	1.38
323.15 K, x1 = 0.6996	774.42	1248.7	1.48
323.15 K, x1 = 0.7999	780.88	1258.1	1.6
323.15 K, x1 = 0.9	787.14	1266.6	1.73
323.15 K, x1 = 1	793.35	1275.5	1.87
333.15 K, x1 = 0.1	726.7	1157.6	0.865
333.15 K, x1 = 0.1998	733.78	1166.9	0.923
333.15 K, x1 = 0.3002	740.68	1176.4	0.984
333.15 K, x1 = 0.3998	747.52	1186	1.06
333.15 K, x1 = 0.4948	753.94	1194.8	1.12
333.15 K, x1 = 0.5997	760.9	1204.5	1.18
333.15 K, x1 = 0.6996	767.37	1213.3	1.26
333.15 K, x1 = 0.7999	773.86	1222.7	1.36
333.15 K, x1 = 0.9	780.16	1231.5	1.46
333.15 K, x1 = 1	786.41	1240.3	1.57
